Assay results published in patent publication US20220195066A1, “ANTI-CEA IMMUNOCONJUGATES, AND USES THEREOF” (BOLT BIOTHERAPEUTICS, INC., priority 2020, published 2022).

Assays:
[1] = target: T1, human TLR7 (Homo sapiens, UniProt Q9NYK1); test: HEK Reporter Assay, HEK293 NFKB reporter cells expressing human TLR7; format: cell-based; conditions: read-out: HEK293 hTLR7 EC50
T1 construct: host or cells: HEK293 NF-kB reporter cells
T1 sequence (Q9NYK1 27-1049): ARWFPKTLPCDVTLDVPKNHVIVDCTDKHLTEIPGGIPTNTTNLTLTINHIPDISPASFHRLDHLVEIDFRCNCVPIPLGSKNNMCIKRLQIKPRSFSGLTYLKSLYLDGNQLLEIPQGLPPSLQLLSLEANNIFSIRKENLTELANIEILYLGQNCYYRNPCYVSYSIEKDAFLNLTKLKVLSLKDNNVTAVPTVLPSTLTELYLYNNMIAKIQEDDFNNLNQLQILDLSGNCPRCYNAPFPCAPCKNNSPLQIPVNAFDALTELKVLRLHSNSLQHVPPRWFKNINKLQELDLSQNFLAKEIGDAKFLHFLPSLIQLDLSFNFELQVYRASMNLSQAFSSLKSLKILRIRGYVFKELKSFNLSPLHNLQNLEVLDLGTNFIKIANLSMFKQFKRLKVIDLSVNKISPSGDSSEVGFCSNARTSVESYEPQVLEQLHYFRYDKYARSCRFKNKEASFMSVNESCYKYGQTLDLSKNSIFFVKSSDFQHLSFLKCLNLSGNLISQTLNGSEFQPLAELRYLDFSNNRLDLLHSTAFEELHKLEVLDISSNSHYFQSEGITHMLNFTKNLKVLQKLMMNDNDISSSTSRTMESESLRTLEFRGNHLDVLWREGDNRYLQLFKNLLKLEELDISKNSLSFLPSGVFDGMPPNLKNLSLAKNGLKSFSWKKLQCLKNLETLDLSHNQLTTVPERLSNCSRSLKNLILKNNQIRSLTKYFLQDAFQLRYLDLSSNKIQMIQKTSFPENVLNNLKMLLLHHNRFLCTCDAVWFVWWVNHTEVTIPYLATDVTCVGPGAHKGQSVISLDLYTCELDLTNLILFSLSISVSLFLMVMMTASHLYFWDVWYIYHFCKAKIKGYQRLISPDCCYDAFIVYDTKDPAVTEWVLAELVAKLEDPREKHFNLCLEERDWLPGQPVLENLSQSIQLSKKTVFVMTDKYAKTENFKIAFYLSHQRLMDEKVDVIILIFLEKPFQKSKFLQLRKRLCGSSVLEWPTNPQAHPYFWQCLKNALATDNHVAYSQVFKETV
Experimental: (§1) Each compound was synthesized, purified, and characterized by mass spectrometry and shown to have the mass indicated. Additional experimental procedures are found in the Examples. Activity against Human Embryonic Kidney (HEK) 293 NFKB reporter cells expressing human TLR7 or human TLR8 was measured according to Example 202.
(§2) Human Embryonic Kidney (HEK293) reporter cells expressing human TLR7 or human TLR8 (InvivoGen, San Diego Calif.), were used with vendor protocols for cellular propagation and experimentation. Briefly, cells were grown to 80-85% confluence at 5% CO2 in DMEM supplemented with 10% FBS, ZEOCIN™, and Blasticidin. Cells were then seeded in 96-well flat plates at 4×10^4 cells/well with substrate containing HEK detection medium and immunostimulatory molecules.

[2] = target: T2, human TLR8 (Homo sapiens, UniProt Q9NR97); test: HEK Reporter Assay, HEK293 NFKB reporter cells expressing human TLR8; format: cell-based; conditions: read-out: HEK293 hTLR8 EC50
T2 construct: host or cells: HEK293 NF-kB reporter cells
T2 sequence (Q9NR97 27-1041): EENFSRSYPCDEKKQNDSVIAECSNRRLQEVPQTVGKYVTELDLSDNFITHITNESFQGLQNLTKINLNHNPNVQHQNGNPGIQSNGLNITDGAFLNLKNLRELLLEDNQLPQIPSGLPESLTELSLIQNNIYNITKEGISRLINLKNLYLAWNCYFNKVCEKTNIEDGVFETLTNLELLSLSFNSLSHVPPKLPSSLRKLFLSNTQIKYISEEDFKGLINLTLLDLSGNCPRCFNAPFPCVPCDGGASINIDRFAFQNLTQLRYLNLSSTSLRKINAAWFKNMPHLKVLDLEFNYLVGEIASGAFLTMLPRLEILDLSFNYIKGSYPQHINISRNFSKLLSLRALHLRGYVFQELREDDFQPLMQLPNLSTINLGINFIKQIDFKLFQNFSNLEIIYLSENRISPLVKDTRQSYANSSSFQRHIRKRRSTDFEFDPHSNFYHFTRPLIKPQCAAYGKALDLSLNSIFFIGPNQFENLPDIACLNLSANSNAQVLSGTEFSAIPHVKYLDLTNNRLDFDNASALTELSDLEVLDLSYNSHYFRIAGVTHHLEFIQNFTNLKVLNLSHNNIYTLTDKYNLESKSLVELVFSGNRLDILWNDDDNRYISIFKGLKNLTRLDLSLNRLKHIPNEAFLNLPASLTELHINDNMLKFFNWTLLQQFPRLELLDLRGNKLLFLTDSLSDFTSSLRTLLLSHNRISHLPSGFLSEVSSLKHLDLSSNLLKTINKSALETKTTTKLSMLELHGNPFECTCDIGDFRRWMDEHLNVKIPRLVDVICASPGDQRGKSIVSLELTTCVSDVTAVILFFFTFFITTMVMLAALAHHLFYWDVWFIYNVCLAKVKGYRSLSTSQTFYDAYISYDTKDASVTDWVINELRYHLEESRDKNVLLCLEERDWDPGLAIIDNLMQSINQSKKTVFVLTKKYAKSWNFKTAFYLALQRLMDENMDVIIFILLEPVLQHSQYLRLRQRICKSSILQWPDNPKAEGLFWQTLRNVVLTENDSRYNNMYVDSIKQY
Experimental: as §1, §2

Row | SMILES | EC50 [1] | EC50 [2]
1 | CCCN(OCC)C(=O)C1=Cc2ccc(-c3ccc(C(=O)OC)nn3)cc2N=C(N)C1 [HxBz-6] | 2660 nM | 339 nM
2 | CCCN(CCCNC(=O)OC(C)C)C(=O)C1=Cc2ccc(-c3cncc(S(=O)(=O)N4CC(CN)C4)c3)cc2N=C(N)C1 [HxBz-33] | 7630 nM | 2880 nM
3 | CCCN(OCC)C(=O)C1=Cc2ccc(-c3cnn(S(=O)(=O)N4CC(CN)C4)c3)cc2N=C(N)C1 [HxBz-9] | 8630 nM | 397 nM
4 | CCCN(OCCNC(=O)NCC)C(=O)C1=Cc2ccc(-c3cnc(CN)nc3)cc2N=C(N)C1 [HxBz-28] | 3770 nM | 2930 nM
5 | CCCN(C(=O)C1=Cc2ccc(-c3cnc(CN)nc3)cc2N=C(N)C1)[C@H]1C[C@H](NC(=O)OC2CCC2)C1 [HxBz-44] |  | 6350 nM
6 | CCCN(CCCOC(=O)NC1CCC1)C(=O)C1=Cc2ccc(-c3cnc(CN)nc3)cc2N=C(N)C1 [HxBz-45, 3-[[2-amino-8-[2-(aminomethyl)pyrimidin-5-yl]-3H-1-benzazepine-4-carbonyl]-propyl-amino]propyl N-cyclobutylcarbamate] | 825 nM | 325 nM
7 | CCCN(OCC)C(=O)C1=Cc2ccc(-c3cnc(N4CCN(C(=O)OC(C)(C)C)CC4)nc3)cc2N=C(N)C1 [HxBz-4, tert-butyl 4-[5-[2-amino-4-[ethoxy (propyl)carbamoyl]-3H-1-benzazepin-8-yl]pyrimidin-2-yl]piperazine-1-carboxylate] | 3260 nM | 350 nM
8 | CCCN(CCCNC(=O)OC(C)C)C(=O)C1=Cc2ccc(-c3cnc(CN)nc3)cc2N=C(N)C1 [HxBz-29] | 134 nM | 296 nM
9 | CCCN(OCC)C(=O)C1=Cc2ccc(N3CCNCC3)cc2N=C(N)C1 [HxBz-18] | 6310 nM | 281 nM
10 | CCCN(OCCNC(=O)N(C)C)C(=O)C1=Cc2ccc(-c3cnc(CN)nc3)cc2N=C(N)C1 [HxBz-20] | 2940 nM | 3690 nM
11 | CCCN(CCCNC(=O)OC1CCC1)C(=O)C1=Cc2ccc(-c3cncc(CN)c3)cc2N=C(N)C1 [HxBz-40] | 357 nM | 755 nM
12 | CCCN(OCCNC(=O)N1CCOCC1)C(=O)C1=Cc2ccc(-c3cnc(CN)nc3)cc2N=C(N)C1 [HxBz-23] | 6880 nM | 6180 nM
13 | CCCN(OCC)C(=O)C1=Cc2ccc(-c3cncc(S(=O)(=O)N4CC(CN)C4)c3)cc2N=C(N)C1 [HxBz-7, 2-amino-8-[5-[3-(aminomethyl)azetidin-1-yl]sulfonyl-3-pyridyl]-N-ethoxy-N-propyl-3H-1-benzazepine-4-carboxamide] | 3630 nM | 335 nM
14 | CCCN(OCCO)C(=O)C1=Cc2ccc(-c3cnc(CN)nc3)cc2N=C(N)C1 [HxBz-22, 2-amino-8-[2-(aminomethyl)pyrimidin-5-yl]-N-(2-hydroxyethoxy)-N-propyl-3H-1-benzazepine-4-carboxamide] | 3920 nM | 1150 nM
15 | CCCN(OCCO)C(=O)C1=Cc2ccc(-c3cncc(S(=O)(=O)N4CC(CN)C4)c3)cc2N=C(N)C1 [HxBz-43] |  | 6160 nM
16 | CCCN(OCCNC(=O)NC1CCC1)C(=O)C1=Cc2ccc(-c3cnc(CN)nc3)cc2N=C(N)C1 [HxBz-16, 2-amino-8-[2-(aminomethyl)pyrimidin-5-yl]-N-[2-(cyclobutylcarbamoylamino)ethoxy]-N-propyl-3H-1-benzazepine-4-carboxamide] | 4600 nM | 399 nM
17 | CCCN(OCC)C(=O)C1=Cc2ccc(-c3ncc(CN)cn3)cc2N=C(N)C1 [HxBz-10] |  | 814 nM
18 | CCCN(OCC1COC(=O)N1)C(=O)C1=Cc2ccc(-c3cnc(CN)nc3)cc2N=C(N)C1 (centres unmarked) [HxBz-46] |  | 3580 nM
19 | CCCN(OCC)C(=O)C1=Cc2ccc(-c3cnnc(CN)c3)cc2N=C(N)C1 [HxBz-48] |  | 2160 nM
20 | CCCN(CC1CNC(=O)O1)C(=O)C1=Cc2ccc(-c3cnc(CN)nc3)cc2N=C(N)C1 (centres unmarked) [HxBz-25] |  | 3160 nM

Further molecules by falling EC50 [2], results first:

Row | EC50 [1] | EC50 [2] | SMILES
21 | 2240 nM | 276 nM | CCCN(OCC)C(=O)C1=Cc2ccc(-c3cccnn3)cc2N=C(N)C1 [HxBz-2]
22 | 2540 nM | 163 nM | CCCN(OCC)C(=O)C1=Cc2ccc(-c3cnc(C#N)nc3)cc2N=C(N)C1 [HxBz-1]
23 | 4070 nM | 161 nM | CCCN(OCC)C(=O)C1=Cc2ccc(-c3cnc(C(=O)OC)nc3)cc2N=C(N)C1 [HxBz-11, methyl 5-(2-amino-4-(ethoxy(propyl)carbamoyl)-3H-benzo[b]azepin-8-yl)pyrimidine-2-carboxylate]
24 | 56 nM | 153 nM | CCCN(CCCNC(=O)OC1CCC1)C(=O)C1=Cc2ccc(-c3ccc(CN)nc3)cc2N=C(N)C1 [HxBz-38]
25 | 3930 nM | 128 nM | CCCN(OCc1ccn[nH]1)C(=O)C1=Cc2ccc(-c3cnc(CN)nc3)cc2N=C(N)C1 [HxBz-41, 2-amino-8-[2-(aminomethyl)pyrimidin-5-yl]-N-propyl-N-(1H-pyrazol-5-ylmethoxy)-3H-1-benzazepine-4-carboxamide]
26 | 322 nM | 79 nM | CCCN(OCCNC(=O)OC1CCC1)C(=O)C1=Cc2ccc(-c3cncc(S(=O)(=O)N4CC(CN)C4)c3)cc2N=C(N)C1 [HxBz-34]
27 | 562 nM | 43 nM | CCCN(OCC)C(=O)C1=Cc2ccc(-c3cnc(N4CCNCC4)nc3)cc2N=C(N)C1 [HxBz-3, 2-amino-N-ethoxy-8-(2-piperazin-1-ylpyrimidin-5-yl)-N-propyl-3H-1-benzazepine-4-carboxamide]
28 | 525 nM | 17 nM | CCCN(OCC)C(=O)C1=Cc2ccc(-c3cnc(CN)nc3)cc2N=C(N)C1 [HxBz-5, 2-amino-8-[2-(aminomethyl)pyrimidin-5-yl]-N-ethoxy-N-propyl-3H-1-benzazepine-4-carboxamide]
29 | 35 nM | 10 nM | CCCN(OCCNC(=O)OC1CCC1)C(=O)C1=Cc2ccc(-c3cnc(CN)nc3)cc2N=C(N)C1 [HxBz-15, cyclobutyl N-[2-[[2-amino-8-[2-(aminomethyl)pyrimidin-5-yl]-3H-1-benzazepine-4-carbonyl]-propyl-amino]oxyethyl]carbamate]
30 | 26 nM | 9 nM | CCCN(OCCNC(=O)OC(C)C)C(=O)C1=Cc2ccc(-c3cnc(CN)nc3)cc2N=C(N)C1 [HxBz-27, isopropyl N-[2-[[2-amino-8-[2-(aminomethyl)pyrimidin-5-yl]-3H-1-benzazepine-4-carbonyl]-propyl-amino]oxyethyl]carbamate]
31 | 159 nM | 6 nM | CCCN(OCC)C(=O)C1=Cc2ccc(-c3cnc(C(=O)N4CCC[C@H]4C(=O)OC)nc3)cc2N=C(N)C1 [HxBz-12]
